According to US8158575B2, “Agent for the prevention and treatment of sexually transmitted diseases-I” (priority 2001, dated 2012):
“And” between values parts separate entries of the source, which are not always exact repeats. Equal entries are not always repeated.

How the values were obtained:
HIV-1 RoJo = test: PBMC antiviral assay (RT activity); assay type: cell-based; conditions: 6 days, AZT control, read-out: HIV-1 RoJo Infected PBMCs IC50
Procedure: (§1) Human immunodeficiency virus type 1 (HIV-1) strain RoJo is a low passage pediatric isolate derived in the laboratories of Southern Research Institute (SRI). The SHIV89.6pd was obtained from Mark Lewis at SRI and stocks grown in human PBMCs for antiviral testing.
(§2) Peripheral blood monocular cells (PBMCs) were obtained from normal hepatitis and HIV-1 negative donors by ficoll hypaque gradient separation. Briefly, anti-coagulated blood was diluted 1:1 with Dulbecco's phosphate buffered saline without Ca^++ and Mg^++ (PBS) and layered over 14 mL of Lymphocyte separation media in a 50 ml centrifuge tube. Tubes were then centrifuged for 30 minutes at 600×g. […] The mononuclear cells were counted, viability determined by Trypan Blue dye exclusion and resuspended in RPMI 1640 medium supplemented with 15% FBS (heat inactivated), 2 mM L-glutamine, 100 U/mL penicillin, 100 µg/mL streptomycin, and 10 µg/mL gentamycin with 2 µg/mL phytohemagluttin (PHA) at 1×10^6 cells/mL. […]
(§3) Human peripheral blood mononuclear cells from a minimum of 2 donors, that have been blasted with PHA and IL-2, were counted, viability determined by Trypan Blue dye exclusion and mixed in equal ratios. […] The assay was incubated for 6 days in a humidified atmosphere at 37° C., 5% CO2, after which supernatants were collected, for analysis of RT activity and sister plates analyzed for cell viability by MTS dye reduction. […]

SHIV 89.6pd = test: PBMC antiviral assay (RT activity); assay type: cell-based; conditions: 6 days, AZT control, read-out: SHIV 89.6pd Infected PBMCs IC50
Procedure: as §1, §2, §3

PBMCs = test: MTS cell viability in PBMC assay; assay type: cell-based, human; conditions: AZT control
From the text: Human peripheral blood mononuclear cells from a minimum of 2 donors, that have been blasted with PHA and IL-2, were counted, viability determined by Trypan Blue dye exclusion and mixed in equal ratios. Pooled donors were used to minimize the variability observed between individual donors which results from quantitative and qualitative differences in HIV infection and overall response to the PHA and IL-2 of primary lymphocyte populations. The cells were resuspended at 1×10^6 cells/mL in RPMI 1640 without phenol red supplemented with 15% Fetal Bovine Serum (heat inactivated), 2 mM L-glutamine, 100 U/mL penicillin, 100 μg/mL streptomycin, 10 μg/mL gentamycin and IL-2 (20 U/mL, R&D Systems, Minneapolis, Minn.). Fifty microliters of cells were then distributed to the inner 60 wells of a 96 well round bottom microtiter culture plate in a standard format developed by the Infectious Disease Research department of Southern Research Institute. Each plate contains cell control wells (cells only), virus control wells (cells plus virus), and experimental wells (drug plus cells plus virus). Serially diluted compounds are added to the microtiter plate followed by the appropriate pre-titered strain of HIV-1 or SHIV-1. All samples were assayed in triplicate with a replicate plate without virus for the determination of compound toxicity. The final volume per well was 200 µL. The assay was incubated for 6 days in a humidified atmosphere at 37° C., 5% CO2, after which supernatants were collected, for analysis of RT activity and sister plates analyzed for cell viability by MTS dye reduction. Wells were also examined microscopically and any abnormalities noted.
At assay termination the assay plates were stained with the soluble tetrazolium-based dye MTS (CellTiter® Reagent Promega, Madison, Wis.) to determined cell viability and quantify compound toxicity. […] At termination of the PBMC assay 20 µL of MTS reagent was added per well, and the wells are incubated for 4 h at 37° C.
AZT has been used as a relevant positive control compound for the individual assays.

HeLa CD4 LTR […]-gal cells [1] = test: XTT toxicity on sister plate of the attachment assay; assay type: cell-based; conditions: XTT, sister plate
Procedure: This assay is designed to detect compounds that interact with the cell and block virus attachment, and/or compounds which interact with the forming attachment/fusion complex. The attachment assay is performed with HeLa CD4 LTR […]-gal cells. HeLa CD4 LTR […]-gal cells are routinely cultured with the required selection antibiotics. Twenty-four h prior to initiation of the assay the cells are trypsinized, counted and 1×10^4 cells placed in a 0.2 cm well in media without selection antibiotics. At 24 h media is removed and compound in media placed on the cells and incubated for 15 min at 37° C. A known titer of the IIIB strain of HIV is then added to the wells and the incubation continued for 1 h. At the end of the incubation the wells are washed 3 times with media and the culture continued for 40 to 48 h. At termination of the assay, media is removed and […]-galactosidase enzyme expression determined by chemiluminescence per manufacturers instructions (Tropix Gal-screen™, Bedford Mass.) by a single step chemiluminescent method using a single solution to lyse the cells and detect […]-galactosidase enzyme activity. Compound toxicity is monitored on a sister plate by XTT dye reduction. […] The virus adsorption interval of 1 h is sufficiently short that AZT, which requires phosphorylation to its active tri-phosphate form (AZT-TTP), is not active in this assay.

[2] = molecular target: T1, cell-to-cell fusion mediated by HIV-1 Env and CD4 (Human immunodeficiency virus type 1 group M subtype B, UniProt P04578); assay type: cell-based; conditions: TC50/IC50
T1 construct: expressed in transfected cells; host or cells: HeLa CD4 LTR beta-gal cells (CD4) co-cultured with HL2/3 cells (HIV-1 Env)
Procedure: (§4) The fusion assay assesses the ability of compounds to block cell-to-cell fusion mediated by HIV-1 Env and CD4 expressed on separate cells. This assay is sensitive to inhibitors of both the gp120/CD4 interaction and inhibitors of the X4 coreceptor. First, 5×10^3 HeLa CD4 LTR […]-gal cells are placed in microtiter wells and incubated overnight. The following day the media is removed and the HeLa CD4 LTR […]-gal cells are incubated for 1 h at 37° C. in fresh media with test compound. Following the incubation 5×10^3 HL2/3 cells are added and the incubation continued for 40 to 48 h. At 40 to 48 h […]-galactosidase enzyme expression is detected by chemiluminescence (Tropix Gal-screen™, Tropix, Bedford, Mass.). Compound toxicity is monitored on a sister plate using XTT dye reduction.

HeLa CD4 LTR […]-gal cells [3] = test: XTT toxicity on sister plate of the fusion assay; assay type: cell-based; conditions: XTT, sister plate
Procedure: as §4

ME180 cells = test: XTT cell viability in the CD4-independent transmission assay
Procedure: ME180 cells, a CD4 negative, X4 positive cervical epithelial cell line is maintained in RPMI 1640 supplemented with 10% fetal bovine serum, glutamine and antibiotics. Twenty-four h prior to the assay ME180 cells are trypsonized, washed and seeded in 96-well flat bottom microtiter plates at a density of 2×10^3 cells per well. On the day of the assay, H9 cells chronically infected with the SK1 clinical isolate of HIV-1 (H9-SK1) are treated with freshly made mitomycin C (200 μg/ml) for 60 minutes at 37° C. This concentration of mitomycin C is sufficient to result in cell death, but allows virus transmission to occur. After mitomycin C treatment the H9-SK1 cells are washed three times with tissue culture medium. Test compounds are added to the ME180 monolayer followed by 2×10^4 H9-SK1 cells. The ME180 cells are co-cultured with H9-SK-1 cells and test material for 4 h, and the H9-SK1 cells are removed by washing the ME180 monolayer three times with PBS. At 24 and 48 h post assay initiation the wells are again washed three times with PBS to ensure removal of the H9-SK1 cells, and culture continued in test material free media. At six days post-co-cultivation, supernatants are collected and evaluated for p24 antigen expression by ELISA. Cell viability is assessed by XTT dye reduction. […] Testing in the presence of mucin is carried out by addition of 200 µg/ml of porcine mucin (Sigma Chemical Co., St Louis, Mo.) to the transmission reactions. Transmission intervals and washing without replacement of mucin or compound are carried as described above. All determinations are performed in triplicate with serial ½ Log10 dilution of the test materials.
TC50 values for the test materials are derived by measuring the reduction of the tetrazolium dye XTT (2,3-bis(2-methoxy-4-nitro-5-sulfophenyl)-5-[(phenylamino)carbonyl]-2H-tetrazolium hydroxide) in replicate microtiter plates containing cell and compound without virus. […] XTT solution is prepared daily as a stock of 1 mg/mL in PBS. Phenazine methosulfate (PMS) solution is prepared at 15 mg/mL in PBS and stored in the dark at −20° C. XTT/PMS stock is prepared immediately before use by diluting the PMS 1:100 into PBS and adding 40 µl per mL of XTT solution. Fifty microliters of XTT/PMS are added to each well of the plate and the plate incubated for 4 h at 37° C. The 4 h incubation has been empirically determined to be within the linear response range for […] dye reduction with the indicated numbers of cells for each assay. Adhesive plate sealers are used in place of the lids, the sealed plate is inverted several times to mix the soluble formazan product and the plate is read at 450 nm with a Molecular Devices Vmax 96 well plate format spectrophotometer.
Dextran sulfate (positive) and dextran (negative) are used as controls for the CD4-dependent and CD4-independent HIV transmission inhibition assays. […] Commercially available Penicillin (10,000 U/ml) Streptomycin (10.0 mg/ml) solution is used as a positive control for the Lactobacillus sensitivity assay.

GHOST(3) X4/R5 cell line = test: XTT cell viability in the CD4-dependent transmission assay; assay type: cell-based, human
Procedure: The […] is carried out essentially as described for the CD4-independent transmission assay except for the use of the CD4 positive GHOST(3) X4/R5 cell line. This cell line is derived from the HOS (human osteosarcoma) cell line that is negative for HIV coreceptor and CD4 expression. The cell line is engineered to express T4 (CD4), R5 and X4 via non-selectable retroviral vectors and an HIV-2 LTR hGFP construct with a hygromycin selectable marker. The cell lines are handled and cultured as described above for the CD4-independent HIV inhibition assay, with the exception that 2.5×10^4 GHOST(3) X4/R5 and 5×10^2 mitomycin C treated H9/SK-1 cells are used in the assay. Addition of compounds, mitomycin C treatment and post-transmission washing to remove the H9/SK-1 cells are performed as described above to allow comparability of the two antiviral assays. Virus replication is assessed at 24 h post infection, following 3 washes, by measurement of cell-associated p24 by ELISA to ensure a single round of infection in the presence of CD4. Compound toxicity and cell viability are assessed by XTT dye reduction.

Compound | IC50 (HIV-1 RoJo) [nM] | IC50 (SHIV 89.6pd) [nM] | HIV-1 RoJo Infected PBMCs TC50 (PBMCs; plate of the HIV-1 RoJo test) [nM] | SHIV 89.6pd Infected PBMCs TC50 (PBMCs; plate of the SHIV 89.6pd test) [nM] | Attachment Assay TC50 (HeLa CD4 LTR […]-gal cells [1]) [µg/mL] | Fusion Assay TI [2] | Fusion Assay TC50 (HeLa CD4 LTR […]-gal cells [3]) [µg/mL] | CD4-Independent Transmission Assay TC50 (ME180 cells; Exp. 2, with mucin) [µg/mL] | CD4-Independent Transmission Assay TC50 (ME180 cells; Exp. 2, without mucin) [µg/mL] | CD4-Dependent Transmission Assay TC50 (GHOST(3) X4/R5 cell line; Exp. 1, without mucin) [µg/mL] | CD4-Dependent Transmission Assay TC50 (GHOST(3) X4/R5 cell line; Exp. 2, with mucin) [µg/mL] | CD4-Dependent Transmission Assay TC50 (GHOST(3) X4/R5 cell line; Exp. 2, without mucin) [µg/mL]
Cc1cn([C@H]2C[C@H](N=[N+]=[N-])[C@@H](CO)O2)c(=O)[nH]c1=O [AZT, reference compound] | 5 | 2 | >1000 | >1000 | – | – | – | – | – | – | – | –
COc1cc(-c2ccc(/N=N/c3ccc4c(S(=O)(=O)O)cc(S(=O)(=O)O)c(N)c4c3O)c(OC)c2)ccc1/N=N/c1ccc2c(S(=O)(=O)O)cc(S(=O)(=O)O)c(N)c2c1O [Chicago Sky Blue, reference compound] | – | – | – | – | >10 | >12 and >16 | >10 | – | – | – | – | –
Dextran sulfate | – | – | – | – | – | – | – | >50 | >50 | >100 | >50 | >50
dextran | – | – | – | – | – | – | – | >100 | >100 | >100 | >100 | >100
